Results published in article PMC4438668, “Quantitative High-Throughput Identification of Drugs as Modulators of Human Constitutive Androstane Receptor” (Scientific Reports, 2015).
Entries after “also recorded” stand apart in the source; their conditions may differ. Read-outs that look alike come from different tables or passages of the source.

What was measured:
[1] = test system: CYP2B6; experiment: CYP2B6 mRNA expression in HPH (real-time PCR); details: for Induction of hCAR target genes / Effect on CYP2B6 mRNA expression: HPH; for Induction of hCAR target genes: target genes CYP2B6 and CYP3A4; for Effect on CYP2B6 mRNA expression: 24 h, vs vehicle control (0.1% DMSO)
[2] = biological target: T1, human CAR (hCAR) (Homo sapiens, UniProt Q14994); experiment: hCAR luciferase reporter qHTS, agonist mode (HepG2-CYP2B6-hCAR cells, PK11195 co-treatment); details: agonist mode; for Follow-up Confirmation Efficacy: relative to CITCO (100%); for Primary Screen Efficacy: relative to CITCO Emax (100%)
T1 sequence (Q14994 1-348 isoform Q14994-2): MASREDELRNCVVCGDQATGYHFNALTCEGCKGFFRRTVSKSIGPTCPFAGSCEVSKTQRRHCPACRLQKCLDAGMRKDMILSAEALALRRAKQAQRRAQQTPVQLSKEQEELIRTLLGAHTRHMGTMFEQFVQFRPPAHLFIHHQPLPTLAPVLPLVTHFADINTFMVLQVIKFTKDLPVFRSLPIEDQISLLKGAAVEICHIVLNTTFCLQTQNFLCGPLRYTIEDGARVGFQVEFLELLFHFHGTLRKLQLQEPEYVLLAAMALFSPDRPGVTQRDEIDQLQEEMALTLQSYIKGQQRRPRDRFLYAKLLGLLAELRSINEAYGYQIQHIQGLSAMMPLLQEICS

[3] = biological target: T2, EYFP-hCAR (Homo sapiens, UniProt Q14994); experiment: Nuclear translocation of Ad/EYFP-hCAR in human primary hepatocytes; format: cell-based; details: HPH
T2 construct: expressed in transfected cells; host or cells: human primary hepatocytes infected with Ad/EYFP-hCAR
T2 sequence (Q14994 1-348 isoform Q14994-2): T1 sequence (Q14994 1-348 isoform Q14994-2)
Protocol: A recombinant adenovirus expressing enhanced yellow fluorescent protein-tagged hCAR (Ad/EYFP-hCAR) was generated as described previously. Hepatocytes cultured in 96-well collagen-coated plates in serum free Williams’ E medium were infected with Ad/EFYP-hCAR (1 μl/well) for 12 h before treatment with the vehicle control, DMSO (0.1%), PB (1 mM), and selected compounds for another 8 h. Subcellular localization of hCAR was visualized using a Nikon (Tokyo, Japan) C1-LU3 instrument based on an inverted Nikon Eclipse TE2000 microscope.

[4] = biological target: T1, human CAR (hCAR)
[5] = test system: CYP3A4; experiment: CYP3A4 mRNA expression in HPH (real-time PCR); format: cell-based, human; details: for Effect on CYP3A4 mRNA expression: HPH, 24 h, vs vehicle control (0.1% DMSO)
[6] = test system: human primary hepatocytes; experiment: MTT cytotoxicity assay in HPH; format: cell-based; details: 1 μM, 24 hours, donor HL-104
Protocol: Figure S1. […] Human primary
was carried out following the manufacturer’s instruction. Data represent the mean ± SD (n =3).
(1 picture or pasted object on this page, not shown here)

[7] = biological target: T1, human CAR (hCAR); experiment: hCAR luciferase reporter qHTS, antagonist mode (HepG2-CYP2B6-hCAR cells, CITCO co-treatment); details: antagonist mode;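 also: stable HepG2 line carrying hCAR plus a CYP2B6 promoter (PBREM/XREM) luciferase reporter, 1536-well format, 24 h compound exposure at 37 °C, then luminescence read with ONE-Glo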
[8] = Cell viability assay (CellTiter-Glo ATP quantitation); format: cell-based, human; set-up: key to Cytotoxicity (activity call): Inactive: considered inactive if efficacy is less than 30%; details: human, HepG2-CYP2B6-hCAR cells, read-out: Cytotoxicity Potency
Protocol: (§1) The potential cytotoxicity of the NPC compounds in HepG2-CYP2B6-hCAR cells was measured using a luciferase-coupled ATP quantitation assay (CellTiter-Glo viability assay, Promega). The change of intracellular ATP content indicates the number of metabolically competent cells. The cells were seeded at 2,500 cells/5 μl in 1536-well plates and were exposed to each test compound at concentrations and treatment duration as previously mentioned. The assay plates were incubated for 24 h at 37 °C, followed by the addition of 4 μl/well of CellTiter-Glo reagent. After 30 min incubation at RT, the luminescence intensity of the plates was measured using a ViewLux plate reader.

[9] = test system: HepG2-CYP2B6-hCAR cells; experiment: as above; format: cell-based, human; set-up: key to Cytotoxicity (activity call): Inactive: considered inactive if efficacy is less than 30%; details: 24 h
Protocol: as §1

[10] = biological target: T3, hPXR (Homo sapiens, UniProt O75469); experiment: Transient hPXR luciferase assay in HepG2 cells (CYP2B6-2.2 kb reporter); format: cell-based
T3 construct: expressed in transfected cells; host or cells: HepG2 (transient transfection)
T3 sequence (O75469 1-434): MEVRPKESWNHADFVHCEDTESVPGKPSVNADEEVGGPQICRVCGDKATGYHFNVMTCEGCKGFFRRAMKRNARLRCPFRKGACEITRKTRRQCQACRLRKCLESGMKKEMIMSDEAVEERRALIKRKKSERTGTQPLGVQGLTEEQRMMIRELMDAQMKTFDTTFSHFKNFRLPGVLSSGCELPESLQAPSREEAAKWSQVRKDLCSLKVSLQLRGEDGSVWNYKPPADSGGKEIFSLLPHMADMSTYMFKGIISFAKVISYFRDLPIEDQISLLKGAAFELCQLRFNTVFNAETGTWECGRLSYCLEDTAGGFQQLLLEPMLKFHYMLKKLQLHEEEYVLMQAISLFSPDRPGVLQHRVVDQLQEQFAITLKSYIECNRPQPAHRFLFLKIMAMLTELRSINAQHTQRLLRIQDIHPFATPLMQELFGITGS
Protocol: HepG2 cells cultured in a 24-well plate were co-transfected with the CYP2B6-2.2 kb reporter and hPXR expression vectors using a Lipofectamine® 2000 Transfection Kit (Life Technologies) following the manufacturer’s instruction. […] Cell lysates were assayed for firefly luciferase activities normalized against the activities of co-transfected Renilla luciferase using a Dual-Luciferase Kit (Promega). Data were represented as mean±SD of three individual transfections.

[11] = test system: CYP2B6 and CYP3A4 proteins; experiment: Immunoblotting of CYP2B6 and CYP3A4 proteins in HPH; format: cell-based, human; details: immunoblotting (Fig. 3C)
Protocol: Homogenate proteins (30 μg) from treated HPH were resolved on an SDS polyacrylamide gel and electrophoretically transferred onto Immobilon-P polyvinylidene difluoride membranes and blocked using 5% blotting-grade blocker (nonfat dry milk, Bio-RAD). Subsequently, membranes were incubated with specific antibodies against CYP2B6 (1:200), CYP3A4 (1:5000), and β-actin (1:50,000) diluted in 1% blotting-grade blocker. β-Actin was used to normalize protein loadings. Membranes were washed using 1x Tris buffered saline–Tween 20 (Bio-RAD) and incubated with horseradish peroxidase goat anti-rabbit IgG antibody diluted at 1:5000, and developed using ECL Western blotting detection reagent (Thermo-Scientific Inc).

[12] = test system: CAR, CYP2B6, or CYP3A4; details: previously known; reference not given; cited from earlier work
[13] = biological target: T1, human CAR (hCAR); remark: listed apart in the source
[14] = Follow-up Confirmation Potency (EC50), follow-up cherry-pick, 11-point titration
[15] = Primary Screen Potency (EC50), primary qHTS, 2.5 μM PK11195, 24 h
[16] = HPH donor HL-104, 24 h, daunorubicin 1, 2.5 and 5 µM, bortezomib 0.1, 0.5, and 1 µM
[17] = Follow-up Confirmation Potency (IC50), follow-up cherry-pick, 11-point titration
[18] = Primary Screen Potency (IC50), primary qHTS, 0.1 μM CITCO, 24 h

Compound: Nc1ccc(Cl)cc1C(=O)c1ccccc1F [2-Amino-5-chloro-2’-fluorobenzophenone]
- Induction of hCAR target genes ([1]; listed as ACFB): negligible induction; also recorded: nor induced the expression of its target genes
- EC50 [2, 14]: 15.6 µM
- EC50 [2, 15]: 3.4 µM
- Follow-up Confirmation Efficacy ([2]; follow-up cherry-pick): 67%
- Primary Screen Efficacy ([2]; primary qHTS): 60%
- hCAR nuclear translocation (in words) ([3]; listed as ACFB): didn’t translocate hCAR; also recorded: neither translocated hCAR

Compound: CCCCc1ccc(O)cc1 [4-butylphenol]
- Identified as hCAR antagonist/deactivator in the qHTS [4]: recognized in the current study

Compound: CN1CCc2cccc3c2[C@H]1Cc1ccc(O)c(O)c1-3 [Apomorphine]
- Induction of hCAR target genes [1]: negligible induction; also recorded: nor induced the expression of its target genes
- EC50 [2, 14]: 13.3 µM
- EC50 [2, 15]: 19 µM
- Follow-up Confirmation Efficacy ([2]; follow-up cherry-pick): 38%
- Primary Screen Efficacy ([2]; primary qHTS): 21%
- hCAR nuclear translocation (in words) [3]: didn’t translocate hCAR; also recorded: neither translocated hCAR

Compound: CC(C)C[C@H](NC(=O)[C@H](Cc1ccccc1)NC(=O)c1cnccn1)B(O)O [Bortezomib]
- Concentration-dependent effect on CYP2B6 mRNA expression [1, 16]: marked and concentration-dependent repression
- Effect on CYP2B6 mRNA expression [1]: most potent repressors of CYP2B6
- Concentration-dependent effect on CYP3A4 mRNA expression [5, 16]: marked and concentration-dependent repression
- Cytotoxicity in HPH (MTT) [6]: not associated with significant cytotoxicity
- IC50 [7, 17]: 30 nM
- IC50 [7, 18]: 20 nM
- Primary Screen Efficacy ([7]; primary qHTS, relative to PK11195 (100%)): -103%
- IC50 at 24 h [8]: 1.25 µM
- Cytotoxicity Efficacy [9]: -57%

Compound: COc1cccc2c1C(=O)c1c(O)c3c(c(O)c1C2=O)C[C@@](O)(C(C)=O)C[C@@H]3O[C@H]1C[C@H](N)[C@H](O)[C@H](C)O1 [Daunorubicin]
- Effect on CYP2B6 mRNA expression [1]: most potent repressors of CYP2B6
- Effect on basal and RIF-induced PXR activity ([10]; HepG2, 24 h, in the presence or absence of rifampicin (10 μM)): only repressed RIF-induced PXR activity
- IC50 at 24 h [8]: 15.9 µM
- Cytotoxicity Efficacy [9]: -43%

Compound: O=c1cc(-c2ccccc2)oc2ccccc12 [Flavone]
- Effect on CYP2B6 mRNA expression [1]: significantly induced; also recorded: markedly induced
- Induction of CYP2B6 and CYP3A4 at the protein level [11]: preferential induction of CYP2B6 over CYP3A4
- Effect on CYP3A4 mRNA expression [5]: marginal effect; also recorded: only marginally increased
- Known modulator of CAR, CYP2B6, or CYP3A4? [12]: Dietary flavonoids activate CAR
- hPXR activation ([10]; data not shown): moderately activated hPXR
- EC50 [2, 14]: 32.4 µM
- EC50 [2, 15]: 34 µM
- Follow-up Confirmation Efficacy ([2]; follow-up cherry-pick): 200%
- Primary Screen Efficacy ([2]; primary qHTS): 184%

Compound: CC(C)=CCOc1c2occc2cc2ccc(=O)oc12 [Imperatorin]
- Induction of CYP2B6 and CYP3A4 at the protein level [11]: preferential induction of CYP2B6 over CYP3A4
- Effect on CYP3A4 mRNA expression [5]: marginal effect; also recorded: only marginally increased
- Follow-up Confirmation Efficacy [13]: 238%
- Primary Screen Efficacy [13]: 146%
- Known modulator of CAR, CYP2B6, or CYP3A4? [12]: Cyp2b10 inducer
- hPXR activation [10]: moderately activated hPXR
- EC50 [2, 14]: 14 µM
- EC50 [2, 15]: 10.7 µM

Compound: C[C@@H]1O[C@@H](O[C@H]2C[C@@H](O)[C@]3(CO)[C@H]4[C@H](O)C[C@]5(C)[C@@H](C6=CC(=O)OC6)CC[C@]5(O)[C@@H]4CC[C@]3(O)C2)[C@H](O)[C@H](O)[C@H]1O [Ouabain]
- Follow-up Confirmation Efficacy [4]: 0.47 (-99%)
- Primary Screen Efficacy [4]: 0.30 (-104%)
- IC50 [7, 17]: 470 nM
- IC50 [7, 18]: 300 nM
- Cytotoxicity (activity call) [9]: Inactive

Compound: NNCCc1ccccc1 [Phenelzine]
- Induction of hCAR target genes [1]: negligible induction
- Induction of hCAR target genes ([1]; listed as phenelzine): nor induced the expression of its target genes
- Known modulator of CAR, CYP2B6, or CYP3A4? [12]: CYP3A4 weak inhibitor
- EC50 [2, 14]: 15.9 µM
- EC50 [2, 15]: 15.1 µM
- Follow-up Confirmation Efficacy ([2]; follow-up cherry-pick): 70%
- Primary Screen Efficacy ([2]; primary qHTS): 145%
- hCAR nuclear translocation (in words) [3]: didn’t translocate hCAR
- hCAR nuclear translocation (in words) ([3]; listed as phenelzine): neither translocated hCAR
